Reference: patent publication US20220087990A1, “APPLICATION OF RIFAMYCIN-QUINOLIZIDONE CONJUGATE MOLECULE AND PHARMACEUTICALLY ACCEPTABLE SALT THEREOF” (priority 2019, published 2022)
≈ marks a conversion by molar mass, not a printed value. Entries after “also recorded” stand apart in the source; their conditions may differ. Where two headings read alike, the source gives them in different places.

Legend:
Format in all cases: cell-based
[1] = system: methicillin-resistant Staphylococcus aureus (MRSA) isolates; test: MIC measured by agar dilution method (CLSI); details: Staphylococcus aureus, MRSA, agar dilution
Description: (§1) Spontaneous mutation and minimal inhibit concentration (MIC) tested by agar dilution method, the above compounds are respectively prepared into a stock solution (100X) with a concentration 100 times the highest final concentration in corresponding solvents and used on the same day. Before use, I is further diluted with DMSO; and oxacillin, rifampicin and levofloxacin are further diluted with water.
(§2) Bacterial isolates: Staphylococcus aureus isolates are retrieved from the −80° C. storage room of Micromyx Culture Collection, thawed, plated onto Tryptic Soy Agar+5% sheep blood (Remel; Lenexa, Kans.), and then incubated aerobically at 35° C. overnight. S. aureus ATCC 29213 (MRSA; MMX 0100) was included during testing only for the purpose of quality control. Test Media: The isolates were tested in both the agar dilution MIC assay and the spontaneous mutation assay using Mueller-Hinton Agar (MHA; BD/BBL; Lot No. 6229829 & 4216798). Inocula of each isolate were suspended in cation-adjusted Mueller-Hinton Broth (CAMHB) (BD/BBL; Lot Nos. 5257869 & 6258541). Sodium chloride (Sigma-Aldrich; Lot No. SLBL0434V) was added to CAMHB at a final concentration of 2% when testing oxacillin. Dilutions of bacterial cell suspensions for the purpose of performing colony counts were also made in CAMHB.
(§3) MIC measured by agar dilution method: according to the recommendation from the Clinical and Laboratory Standards Institute (CLSI), the MIC value is measured by the agar dilution method. […] Each test agent was combined with molten MHA agar (50-55° C.) at a ratio of 0.2 mL of 100× test agent to 19.8 mL agar in a sterile tube, mixed gently, and then poured into a sterile petri plate (BD Falcon). Plates were allowed to solidify at room temperature. A 0.5 McFarland standard bacterial suspension was prepared, diluted 1:10 in CAMHB, and transferred to the wells of a stainless steel replicator block before stamping onto plates containing drug, resulting in 10^4 CFU/spot. After allowing the inoculum to dry on the surface of the agar, the plates were inverted, incubated aerobically at 35° C. for 20-24 hr, and inspected for growth.

[2] = system: Staphylococcus aureus ATCC 29213; test: MIC measured by agar dilution method, quality control strain; details: strain 100, MSSA QC strain
Description: as §1, §2, §3
In parallel experiments, a standard bacterium suspension with a […] turbidity of 0.5 is prepared as a standard inoculum for agar dilution analysis (10^4 CFU/point). […] In this step, the broths and drugs used in the spontaneous mutation analysis are used to confirm that the concentration of the drug stock solution can inhibit the growth of the standard inoculum. The quality of the levofloxacin stock solution is controlled by a standard inoculum and levofloxacin of 8-0.008 μg/mL, and separate agar dilution analysis is performed. […]

[3] = system: Staphylococcus aureus MMX 3265, 3270, 3278, and 6312; details: for Cell counts (mean): 1 used if no colonies
Description: Each test agent stock solution was prepared at 100× the final desired test concentration for the spontaneous mutation frequency assay agar plates.
The drug/agar mixture was dispensed into sterile 150×15 mm plates (BD Falcon) to a volume of 50 mL in each plate. The target inoculum for each spontaneous mutation plate was at least 10^9 CFU. Plates were allowed to solidify at room temperature.
The inocula for the spontaneous mutation frequency assay were prepared by using sterile cotton swabs to harvest colonies from freshly grown isolates and preparing a dense cell suspension (approximately 1.70 on the turbidity meter) in 6 mL of CAMHB. The viable count of this suspension was determined by plating serial ten-fold dilutions onto MHA and taking the average of duplicate counts. For the spontaneous mutation assay, 0.25 mL of inoculum was spread onto the surface of duplicate 150×15 mm plates for each drug concentration tested, allowed to dry, and then the plates were inverted and incubated at 35° C. for 48 hr prior to counting viable colonies. The spontaneous mutation frequency was calculated using the following equation:
Spontaneous mutation frequency=average number of colonies on selected plates/total number of cells incubated onto each plate
If there were no colonies on the antibiotic selection plates, the spontaneous mutation frequency was reported as less than or equal to the mutation frequency that would have resulted from the presence of one colony (e.g. 1/total number of cells inoculated onto the plate).

[4] = system: Staphylococcus aureus ATCC 29213; test: MIC measured by fluid broth microdilution method (quality control); details: ATCC29213
[5] = isolate 3265 LEV^R RIF^S, drug 0.5 μg/mL in plates (combination 0.5 each), inoculation 5.40E+09 CFU
[6] = isolate 3265 LEV^R RIF^S, drug 2 μg/mL in plates (combination 2 each), inoculation 5.40E+09 CFU
[7] = isolate 3265 LEV^R RIF^S, drug 8 μg/mL in plates (combination 8 each), inoculation 5.40E+09 CFU
[8] = isolate 3270 LEV^R RIF^S, drug 0.5 μg/mL in plates (combination 0.5 each), inoculation 5.30E+09 CFU
[9] = isolate 3270 LEV^R RIF^S, drug 2 μg/mL in plates (combination 2 each), inoculation 5.30E+09 CFU
[10] = isolate 3270 LEV^R RIF^S, drug 8 μg/mL in plates (combination 8 each), inoculation 5.30E+09 CFU
[11] = isolate 3278 LEV^S RIF^S, drug 0.5 μg/mL in plates (combination 0.5 each), inoculation 3.80E+09 CFU
[12] = isolate 3278 LEV^S RIF^S, drug 2 μg/mL in plates (combination 2 each), inoculation 3.80E+09 CFU
[13] = isolate 3278 LEV^S RIF^S, drug 8 μg/mL in plates (combination 8 each), inoculation 3.80E+09 CFU
[14] = isolate 6312 LEV^R RIF^S, drug 0.5 μg/mL in plates (combination 0.5 each), inoculation 3.90E+09 CFU
[15] = isolate 6312 LEV^R RIF^S, drug 2 μg/mL in plates (combination 2 each), inoculation 3.90E+09 CFU
[16] = isolate 6312 LEV^R RIF^S, drug 8 μg/mL in plates (combination 8 each), inoculation 3.90E+09 CFU

Question: With CO[C@H]1/C=C/O[C@@]2(C)Oc3c(C)c(O)c4c(O)c(c(/C=N/N5CCC(N(C)C6([C@@H]7CCN(c8c(F)cn9c(=O)c(C(=O)O)cc(C%10CC%10)c9c8C)C7)CC6)CC5)c(O)c4c3C2=O)NC(=O)/C(C)=C\C=C\[C@H](C)[C@H](O)[C@@H](C)[C@@H](O)[C@@H](C)[C@H](OC(C)=O)[C@@H]1C [I] as the compound, how does the MIC ([1]; read-out: MIC over all strains under test, 23 MRSA isolates) read?
Answer: 0.015 µg/mL (≈ 0.0124 µM)

Question: What about the MIC ([1]; strain 3085, LEV^S RIF^S) of the same compound?
Answer: 0.015 µg/mL (≈ 0.0124 µM)

Question: And the MIC ([1]; strain 3090, LEV^R RIF^S)?
Answer: 0.015 µg/mL (≈ 0.0124 µM)

Question: What about the MIC ([1]; strain 3094, LEV^R RIF^S) of the same compound?
Answer: 0.015 µg/mL (≈ 0.0124 µM)

Question: And the MIC ([1]; strain 3098, LEV^S RIF^S)?
Answer: 0.015 µg/mL (≈ 0.0124 µM)

Question: What about the MIC ([1]; strain 3265, LEV^R RIF^S) of the same compound?
Answer: 0.015 µg/mL (≈ 0.0124 µM)

Question: What about the MIC ([1]; strain 3266, LEVR RIFS) of the same compound?
Answer: 0.015 µg/mL (≈ 0.0124 µM)

Question: What about the MIC ([1]; strain 3270, LEV^R RIF^S) of the same compound?
Answer: 0.015 µg/mL (≈ 0.0124 µM)

Question: And the MIC ([1]; strain 3271, LEV^R RIF^S)?
Answer: 0.015 µg/mL (≈ 0.0124 µM)

Question: What about the MIC ([1]; strain 3277, LEV^S RIF^S) of the same compound?
Answer: 0.015 µg/mL (≈ 0.0124 µM)

Question: What about the MIC ([1]; strain 3278, LEV^S RIF^S) of the same compound?
Answer: 0.015 µg/mL (≈ 0.0124 µM)

Question: What about the MIC ([1]; strain 6312, LEV^R RIF^S) of the same compound?
Answer: 0.015 µg/mL (≈ 0.0124 µM)

Question: And the MIC ([1]; strain 6313, LEV^R RIF^S)?
Answer: 0.015 µg/mL (≈ 0.0124 µM)

Question: What about the MIC ([1]; strain 6315, LEV^R RIF^S) of the same compound?
Answer: 0.015 µg/mL (≈ 0.0124 µM)

Question: And the MIC ([1]; strain 6498, LEV^R RIF^S)?
Answer: 0.015 µg/mL (≈ 0.0124 µM)

Question: What about the MIC ([1]; strain 6501, LEV^R RIF^S) of the same compound?
Answer: 0.015 µg/mL (≈ 0.0124 µM)

Question: What about the MIC ([1]; strain 6505, LEV^R RIF^S) of the same compound?
Answer: 0.015 µg/mL (≈ 0.0124 µM)

Question: And the MIC ([1]; strain 7771, LEV^R RIF^S)?
Answer: 0.015 µg/mL (≈ 0.0124 µM)

Question: What about the MIC ([1]; strain 7772, LEV^S RIF^S) of the same compound?
Answer: 0.015 µg/mL (≈ 0.0124 µM)

Question: And the MIC ([1]; strain 7773, LEV^R RIF^S)?
Answer: 0.015 µg/mL (≈ 0.0124 µM)

Question: What about the MIC ([1]; strain 7774, LEV^R RIF^S) of the same compound?
Answer: 0.015 µg/mL (≈ 0.0124 µM)

Question: And the MIC ([1]; strain 7775, LEV^R)?
Answer: 0.015 µg/mL (≈ 0.0124 µM)

Question: What about the MIC [2] of the same compound?
Answer: 0.015 µg/mL (≈ 0.0124 µM)

Question: And the “spontaneous mutants / development of drug resistance (in words)” value ([3]; four MRSA isolates, 0.5, 2 or 8 μg/mL)?
Answer: No spontaneous mutants are recovered; also recorded: none of the four MRSA strains under test develops drug resistance

Question: And the “Cell counts (mean)” value ([3]; isolate 3265, drug 0.5 μg/mL)?
Answer: 1^1

Question: And the “Cell counts (mean)” value ([3]; isolate 3265, drug 2 μg/mL)?
Answer: 1

Question: And the “Cell counts (mean)” value ([3]; isolate 3265, drug 8 μg/mL)?
Answer: 1

Question: And the “Cell counts plate A” value [3, 5]?
Answer: 0

Question: And the “Cell counts plate B” value [3, 5]?
Answer: 0

Question: What about the Mutation frequency [3, 5] of the same compound?
Answer: <1.85E−10

Question: And the “Cell counts plate A” value [3, 6]?
Answer: 0

Question: And the “Cell counts plate B” value [3, 6]?
Answer: 0

Question: What about the Mutation frequency [3, 6] of the same compound?
Answer: <1.85E−10

Question: And the “Cell counts plate A” value [3, 7]?
Answer: 0

Question: And the “Cell counts plate B” value [3, 7]?
Answer: 0

Question: And the Mutation frequency [3, 7]?
Answer: <1.85E−10

Question: What about the “Cell counts (mean)” value ([3]; isolate 3270, drug 0.5 μg/mL) of the same compound?
Answer: 1

Question: What about the “Cell counts (mean)” value ([3]; isolate 3270, drug 2 μg/mL) of the same compound?
Answer: 1

Question: And the “Cell counts (mean)” value ([3]; isolate 3270, drug 8 μg/mL)?
Answer: 1

Question: And the “Cell counts plate A” value [3, 8]?
Answer: 0

Question: What about the “Cell counts plate B” value [3, 8] of the same compound?
Answer: 0

Question: And the Mutation frequency [3, 8]?
Answer: <1.89E−10

Question: What about the “Cell counts plate A” value [3, 9] of the same compound?
Answer: 0

Question: And the “Cell counts plate B” value [3, 9]?
Answer: 0

Question: And the Mutation frequency [3, 9]?
Answer: <1.89E−10

Question: What about the “Cell counts plate A” value [3, 10] of the same compound?
Answer: 0

Question: What about the “Cell counts plate B” value [3, 10] of the same compound?
Answer: 0

Question: And the Mutation frequency [3, 10]?
Answer: <1.89E−10

Question: And the “Cell counts (mean)” value ([3]; isolate 3278, drug 0.5 μg/mL)?
Answer: 1

Question: And the “Cell counts (mean)” value ([3]; isolate 3278, drug 2 μg/mL)?
Answer: 1

Question: What about the “Cell counts (mean)” value ([3]; isolate 3278, drug 8 μg/mL) of the same compound?
Answer: 1

Question: What about the “Cell counts plate A” value [3, 11] of the same compound?
Answer: 0

Question: What about the “Cell counts plate B” value [3, 11] of the same compound?
Answer: 0

Question: What about the Mutation frequency [3, 11] of the same compound?
Answer: <2.63E−10

Question: And the “Cell counts plate A” value [3, 12]?
Answer: 0

Question: And the “Cell counts plate B” value [3, 12]?
Answer: 0

Question: And the Mutation frequency [3, 12]?
Answer: <2.63E−10

Question: And the “Cell counts plate A” value [3, 13]?
Answer: 0

Question: And the “Cell counts plate B” value [3, 13]?
Answer: 0

Question: And the Mutation frequency [3, 13]?
Answer: <2.63E−10

Question: What about the “Cell counts (mean)” value ([3]; isolate 6312, drug 0.5 μg/mL) of the same compound?
Answer: 1

Question: And the “Cell counts (mean)” value ([3]; isolate 6312, drug 2 μg/mL)?
Answer: 1

Question: And the “Cell counts (mean)” value ([3]; isolate 6312, drug 8 μg/mL)?
Answer: 1

Question: What about the “Cell counts plate A” value [3, 14] of the same compound?
Answer: 0

Question: And the “Cell counts plate B” value [3, 14]?
Answer: 0

Question: What about the Mutation frequency [3, 14] of the same compound?
Answer: <2.56E−10

Question: And the “Cell counts plate A” value [3, 15]?
Answer: 0

Question: And the “Cell counts plate B” value [3, 15]?
Answer: 0

Question: And the Mutation frequency [3, 15]?
Answer: <2.56E−10

Question: And the “Cell counts plate A” value [3, 16]?
Answer: 0

Question: What about the “Cell counts plate B” value [3, 16] of the same compound?
Answer: 0

Question: What about the Mutation frequency [3, 16] of the same compound?
Answer: <2.56E−10

Question: And the MIC [4]?
Answer: 0.25 µg/mL (≈ 0.207 µM)
